These results are taken from patent publication US11498896B2 (The Broad Institute, Inc., priority 2014, dated 2022).

pEC50, pIC50: −log10 of the molar value. A value given as a limit tells only on which side of the number the result lay.

Test [1] addresses T1, human D2R/β-arrestin (Homo sapiens (Human), UniProt P14416). Put plainly: β-arrestin agonist assay (PathHunter). The format is cell-based. To be noted: CHO-K1 cells expressing human D2R/β-arrestin; agonist mode. The method, then: The detection reagent (9.6 μL, Buffer:Emerald II:Galactor-Star in a 19:5:1 ratio, i.e., 14.06 mL:3.7 mL:0.74 mL=18.5 mL) was then added to the agonist plates.

Test [2] concerns the target T1, human D2R/β-arrestin. Put plainly: Gi/cAMP agonist assay (Lance Ultra cAMP, forskolin). The format is cell-based. The note with it: CHO-K1 cells expressing human D2R/β-arrestin; agonist mode, 2.5 μM forskolin. The method, then:
Eu-cAMP tracer solution (10 μl, PerkinElmer, 360 μl of Tracer in 17.64 ml kit buffer) and ULight-anti-cAMP solution (10 μl, 120 μL antibody in 17.88 ml kit buffer) was then added to each well.

The target in test [3] is T1, human D2R/β-arrestin. Put plainly: cell-based. To be noted: β-arrestin Antagonist, CHO-K1 cells expressing human D2R/β-arrestin; antagonist mode, quinpirole 130 nM.
Test [4] deals with T1, human D2R/β-arrestin. Put plainly: cell-based. The note with it: cAMP Antagonist, CHO-K1 cells expressing human D2R/β-arrestin; antagonist mode, 2.5 μM forskolin and 2.7 nM quinpirole.

T1 sequence (P14416 whole entry): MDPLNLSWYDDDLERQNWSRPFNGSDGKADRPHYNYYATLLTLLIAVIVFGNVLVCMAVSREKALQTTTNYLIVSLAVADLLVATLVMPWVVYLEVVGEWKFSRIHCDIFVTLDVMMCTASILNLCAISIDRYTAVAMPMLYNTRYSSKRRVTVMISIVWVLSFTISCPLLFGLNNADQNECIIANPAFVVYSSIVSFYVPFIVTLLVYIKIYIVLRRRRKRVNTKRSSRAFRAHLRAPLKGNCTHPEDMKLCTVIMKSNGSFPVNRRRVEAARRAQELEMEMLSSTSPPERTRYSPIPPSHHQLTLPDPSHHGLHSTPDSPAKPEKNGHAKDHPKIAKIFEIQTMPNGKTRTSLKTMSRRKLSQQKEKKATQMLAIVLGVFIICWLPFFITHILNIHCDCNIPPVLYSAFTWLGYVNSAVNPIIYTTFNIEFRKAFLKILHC

As to `CC1(Oc2ccc(Cl)cc2)CCN(CCOc2ccc(F)cc2F)C1` (stereo not shown) [Compound 22, 3-(4-chlorophenoxy)-1-(2-(2,4-difluorophenoxy)ethyl)-3-methyl pyrrolidine], the pEC50 on human D2R/β-arrestin [1] was under 4.52; on human D2R/β-arrestin [2], over 7.00. The pIC50 at human D2R/β-arrestin [3] is 5.00 to 6.00; against human D2R/β-arrestin [4], 6.00 to 7.00.

Take `CC1(Oc2ccc(Cl)cc2)CCN(CCOc2cc(F)ccc2F)C1` (stereo not shown) [Compound 23, 3-(4-chlorophenoxy)-1-(2-(2,5-difluorophenoxy)ethyl)-3-methyl pyrrolidine]: the pEC50 at human D2R/β-arrestin [1] was under 4.52; at human D2R/β-arrestin [2], over 7.00. Besides, the results for the negative-log IC50 (pIC50) on human D2R/β-arrestin [3] and against human D2R/β-arrestin [4] were 6.00 to 7.00 and under 4.52, respectively.

`CC1(Oc2ccc(Cl)cc2)CCN(CCOc2ccc3cccnc3c2)C1` (stereo not shown) [Compound 24]: the pEC50 on human D2R/β-arrestin [1] and at human D2R/β-arrestin [2] was over 7.00 in each case. The pIC50 at human D2R/β-arrestin [3] and against human D2R/β-arrestin [4] was under 4.52 in each case.

`CC1(Oc2ccc(Cl)cc2)CCN(CCOc2ccc3ccc(=O)[nH]c3c2)C1` (stereo not shown) [Compound 25, 7-(2-(3-(4-chlorophenoxy)-3-methylpyrrolidin-1-yl)ethoxy)quinolin-2(1H)-one]: the pEC50 at human D2R/β-arrestin [1] and on human D2R/β-arrestin [2] was under 4.52 in each case. Moreover, the pIC50 against human D2R/β-arrestin [3] and at human D2R/β-arrestin [4] was 5.00 to 6.00 each time.

As to `CC1(Oc2ccc(Cl)cc2)CCN(CCCc2ccccc2)C1` (stereo not shown) [Compound 26, 3-(4-chlorophenoxy)-3-methyl-1-(3-phenylpropyl)pyrrolidine], the pEC50 on human D2R/β-arrestin [1] and at human D2R/β-arrestin [2] was under 4.52 each time. In addition, the pIC50 was 5.00 to 6.00 at human D2R/β-arrestin [3] and 6.00 to 7.00 on human D2R/β-arrestin [4].

Turning to `CC1(Oc2ccc(Cl)cc2)CCN(CCCCOc2ccccc2Cl)C1` (stereo not shown) [Compound 28, 3-(4-chlorophenoxy)-1-(4-(2-chlorophenoxy)butyl)-3-methylpyrrolidine], the pEC50 at human D2R/β-arrestin [1] and on human D2R/β-arrestin [2] was under 4.52 each time. For the same molecule, the pIC50 against human D2R/β-arrestin [3] was 6.00 to 7.00; on human D2R/β-arrestin [4] it was over 7.00.

In the case of `CC1(Oc2ccc(Cl)cc2)CCN(CCCCOc2ccc3ncsc3c2)C1` (stereo not shown) [Compound 29, 6-(4-(3-(4-chlorophenoxy)-3-methylpyrrolidin-1-yl)butoxy)benzo[d]thiazole], the pEC50 at human D2R/β-arrestin [1] and at human D2R/β-arrestin [2] was under 4.52 each time. Further, the pIC50 against human D2R/β-arrestin [3] and on human D2R/β-arrestin [4] was 5.00 to 6.00 each time.

Regarding `CC1(Oc2ccc(Cl)cc2)CCN(CCOc2ccc(C(F)(F)F)nc2)C1` (stereo not shown) [Compound 30, 5-(2-(3-(4-Chlorophenoxy)-3-methylpyrrolidin-1-yl)ethoxy)-2-(trifluoromethyl)pyridine], the values for the negative-log EC50 (pEC50) on human D2R/β-arrestin [1] and on human D2R/β-arrestin [2] were 5.00 to 6.00 and 6.00 to 7.00, respectively. Further, the pIC50 at human D2R/β-arrestin [3] and at human D2R/β-arrestin [4] was under 4.52 throughout.

`CC1(Oc2ccc(Cl)cc2)CCN(CCOc2ccc3ccccc3c2)C1` (stereo not shown) [Compound 31, 3-(4-Chlorophenoxy)-3-methyl-1-(2-(naphthalen-2-yloxy)ethyl) pyrrolidine]: the negative-log EC50 (pEC50) at human D2R/β-arrestin [1] and on human D2R/β-arrestin [2] was under 4.52 each time. Besides, the pIC50 against human D2R/β-arrestin [3] was 5.00 to 6.00; against human D2R/β-arrestin [4] it was 6.00 to 7.00.

For `CC1(Oc2ccc(Cl)cc2)CCN(CCOc2ccc3ncccc3c2)C1` (stereo not shown) [Compound 32], the negative logarithm of the EC50 (pEC50) on human D2R/β-arrestin [1] was under 4.52; at human D2R/β-arrestin [2], 6.00 to 7.00. Moreover, the values for the pIC50 against human D2R/β-arrestin [3] and against human D2R/β-arrestin [4] were 5.00 to 6.00 and under 4.52, respectively.

On to `CC1(Oc2ccc(Cl)cc2)CCN(CCOc2ccc3cnccc3c2)C1` (stereo not shown) [Compound 33, 6-(2-(3-(4-chlorophenoxy)-3-methylpyrrolidin-1-yl)ethoxy)isoquinoline], for which the pEC50 on human D2R/β-arrestin [1] and at human D2R/β-arrestin [2] was under 4.52 in each case. The pIC50 is 5.00 to 6.00 against human D2R/β-arrestin [3] and 6.00 to 7.00 against human D2R/β-arrestin [4].

Turning to `CC1(Oc2ccc(Cl)cc2)CCN(CCOc2ccc3ccncc3c2)C1` (stereo not shown) [Compound 34, 7-(2-(3-(4-chlorophenoxy)-3-methylpyrrolidin-1-yl)ethoxy)isoquinoline], the pEC50 at human D2R/β-arrestin [1] was 5.00 to 6.00; at human D2R/β-arrestin [2], 6.00 to 7.00. The pIC50 against human D2R/β-arrestin [3] and at human D2R/β-arrestin [4] was under 4.52 in each case.

For the molecule `CC1(Oc2ccc(Cl)cc2)CCN(CCOc2ccc(Cl)c(Cl)c2)C1` (stereo not shown) [Compound 35, 3-(4-chlorophenoxy)-1-(2-(3,4-dichlorophenoxy)ethyl)-3-methyl pyrrolidine], the figures for the pEC50 on human D2R/β-arrestin [1] and at human D2R/β-arrestin [2] were under 4.52 and over 7.00, respectively. Further, the negative-log IC50 (pIC50) was 5.00 to 6.00 against human D2R/β-arrestin [3] and under 4.52 on human D2R/β-arrestin [4].

Regarding `CC1(Oc2ccc(Cl)cc2)CCN(CCOc2cccc3ccccc23)C1` (stereo not shown) [Compound 36, 3-(4-chlorophenoxy)-3-methyl-1-(2-(naphthalen-1-yloxy)ethyl) pyrrolidine], the pEC50 on human D2R/β-arrestin [1] was under 4.52; at human D2R/β-arrestin [2], 6.00 to 7.00. For the same molecule, the negative-log IC50 (pIC50) at human D2R/β-arrestin [3] was 5.00 to 6.00; on human D2R/β-arrestin [4], 6.00 to 7.00.

In the case of `CC1(Oc2ccc(Cl)cc2)CCN(CCOc2cccc(-c3ccccc3)c2)C1` (stereo not shown) [Compound 37, 1-(2-([1,1′-biphenyl]-3-yloxy)ethyl)-3-(4-chlorophenoxy)-3-methylpyrrolidine], the pEC50 at human D2R/β-arrestin [1] and at human D2R/β-arrestin [2] was under 4.52 in each case. Besides, the negative-log IC50 (pIC50) against human D2R/β-arrestin [3] was 5.00 to 6.00; against human D2R/β-arrestin [4], 6.00 to 7.00.

Take `CC1(Oc2ccc(Cl)cc2)CCN(CCOc2ccccc2)CC1` [Compound 38, 4-(4-chlorophenoxy)-4-methyl-1-(2-phenoxyethyl)piperidine]: the values for the pEC50 on human D2R/β-arrestin [1] and at human D2R/β-arrestin [2] were 6.00 to 7.00 and over 7.00, respectively. Moreover, the pIC50 against human D2R/β-arrestin [3] and against human D2R/β-arrestin [4] was under 4.52 throughout.

Take `CC1(Oc2ccccc2)CCN(CCOc2ccccc2)C1` (stereo not shown) [Compound 39, 3-methyl-3-phenoxy-1-(2-phenoxyethyl)pyrrolidine]: the values for the pEC50 on human D2R/β-arrestin [1] and on human D2R/β-arrestin [2] were under 4.52 and over 7.00, respectively. The pIC50 is 6.00 to 7.00 against human D2R/β-arrestin [3] and under 4.52 against human D2R/β-arrestin [4].

Consider `FC(F)(F)c1ccccc1OCCN1CCC2(CC1)CCN2c1ccccc1` [Compound 113, 1-phenyl-7-(2-(2-(trifluoromethyl)phenoxy)ethyl)-1,7-diazaspiro[3.5]nonane], for which the pEC50 at human D2R/β-arrestin [1] and on human D2R/β-arrestin [2] was under 4.52 in each case. The pIC50 against human D2R/β-arrestin [3] and against human D2R/β-arrestin [4] was 6.00 to 7.00 each time.

As to `OC1(Cc2ccccc2)CCN(CCOc2ccccc2C(F)(F)F)CC1` [Compound 114, 4-benzyl-1-(2-(2-(trifluoromethyl)phenoxy)ethyl)piperidin-4-ol], the pEC50 at human D2R/β-arrestin [1] and at human D2R/β-arrestin [2] was under 4.52 each time. For the same molecule, the pIC50 against human D2R/β-arrestin [3] and against human D2R/β-arrestin [4] was over 7.00 in each case.

For `FC1(Cc2ccccc2)CCN(CCOc2ccccc2C(F)(F)F)CC1` [Compound 115, 4-benzyl-4-fluoro-1-(2-(2-(trifluoromethyl)phenoxy)ethyl)piperidine], the pEC50 on human D2R/β-arrestin [1] and at human D2R/β-arrestin [2] was under 4.52 each time. Moreover, the pIC50 against human D2R/β-arrestin [3] and on human D2R/β-arrestin [4] was 5.00 to 6.00 each time.

As for `CC1(Oc2ccccc2)CCN(CCC(=O)c2ccccc2C(F)(F)F)CC1` [Compound 116, 3-(4-Methyl-4-phenoxypiperidin-1-yl)-1-(2-(trifluoromethyl)phenyl) propan-1-one], the pEC50 at human D2R/β-arrestin [1] and on human D2R/β-arrestin [2] was under 4.52 each time. Moreover, the pIC50 against human D2R/β-arrestin [3] is 4.52 to 5.00; against human D2R/β-arrestin [4], 5.00 to 6.00.

For the molecule `CC1(Oc2ccc(Cl)cc2)CCN(CCC(C)(O)c2ccccc2C(F)(F)F)CC1` (stereo not shown) [Compound 117, 4-(4-(4-chlorophenoxy)-4-methylpiperidin-1-yl)-2-(2-(trifluoromethyl)phenyl)butan-2-ol], the negative-log EC50 (pEC50) on human D2R/β-arrestin [1] and on human D2R/β-arrestin [2] was under 4.52 each time. The pIC50 is 4.52 to 5.00 against human D2R/β-arrestin [3] and 5.00 to 6.00 against human D2R/β-arrestin [4].
